According to article PMC9698716, “From Serendipity to Rational Identification of the 5,6,7,8-Tetrahydrobenzo[4,5]thieno[2,3-d]pyrimidin-4(3H)-one Core as a New Chemotype of AKT1 Inhibitors for Acute Myeloid Leukemia” (Pharmaceutics, 2022):

Tested on: SKM-1
Assay: CellTiter Blue cell viability assay
Assay type: cell-based, human
Details: Homo sapiens, SKM-1, 48 h; read-out: cellular IC50
Source text: The human AML cell lines, OCI-AML3 (carrying the NPM1 gene mutation A and the DNMT3A^R882C mutation), IMS-M2 (carrying the NPM1 gene mutation A), OCI-AML2 (with the wild-type NPM1 and DNMT3A^R635W mutation), and SKM-1 and MOLM-13 (with the wild-type NPM1) were previously reported. The cell lines were purchased from the Deutsche Sammelung von Mikroorganismen und Zellkulturen (DSMZ) (Braunschweig, Germany) cell bank and maintained according to the vendors’ instructions. Briefly, cultured cells were split every 3 days and maintained in an exponential growth phase. The cell lines were tested for mycoplasma using the Universal Mycoplasma Detection Kit (ATCC). The OCI-AML3 were grown in α-MEM supplemented with 20% fetal bovine serum, 100 U/mL penicillin, and 100 μg/mL streptomycin (P/S), and all other cell lines were cultured in RPMI and supplemented with a 10–20% fetal bovine serum and 100 U/mL penicillin and 100 μg/mL streptomycin. The cells were kept at 37 °C in a 5% CO2 incubator. Prior to screening, the appropriate cell concentration for all cell lines was determined. For the cell lines’ treatments, cells were maintained as follows: OCI-AML3 at 0.25 × 10^6/mL, OCI-AML2 and IMS-M2 at 0.35 × 10^6/mL, and SKM-1 and MOLM-13 at 0.5 × 10^6/mL. The compounds were re-suspended at 10 mM stock in DMSO. Further dilutions were performed in phosphate-buffer-saline (PBS) for pharmacological experiments. The cells were exposed to compounds at different concentrations for the indicated time points and sampled as described below. Briefly, the cells (4 × 10^5/mL) were seeded in 384-well plate and treated for 48 h with various concentrations (0.001 μM to 100 μM) of either one of the compounds, T101, T126, and T159, or NSC348884, as a positive control. Each plate included DMSO at 0.1% as a negative control. The metabolic cell activity was measured by using the CellTiter Blue proliferation agent (Roche) as described in the manufacturer’s procedure. Briefly, CellTiter Blue solution (Resazaurin) was added to each well and the plates were incubated at 37 °C with 5% CO2 for 4 h. During the incubation time, the resazurin is reduced to fluorescent resorufin in metabolically and proliferating living cells. The fluorescence intensity was measured using the automated Tecan plate reader (Tecan Group Ltd., Männedorf, Switzerland) at an excitation/emission wavelength of 531/572 nm. The fluorescence readouts were reported as relative fluorescence units (RFU) and read on a luminescence plate reader (Infinite 200 Pro, Tecan, CA, USA). The dose response curves ([…] (IC50)) were obtained by non-linear regression analysis using the GraphPad Prism 5.0 program. The concentration is shown as a logarithmic function. All the experiments were performed at least in triplicate, with technical repetition. The results are expressed as mean ± standard error of the mean (SEM). For the Colony Forming Unit (CFU) assay, 10 × 10^6 CD34+ human hematopoietic progenitors were received from unique healthy donors, upon signed informed consent, and were cultured in SFEM II (Serum-free medium) and P/S at a density of 1 × 10^6/mL with cytokines that are important for cell division and self-renewal: fms-like tyrosine kinase 3 (FLT3)-ligand, FLT3L (100 ng/mL), Stem Cell Factor, SCF (100 ng/mL) and Trombopoietin, and TPO (50 ng/mL) for 48 h before plating them on a Methocult medium.

O=c1[nH]c(-c2ccc(O)c(O)c2)nc2sc3c(c12)CCCC3 [T126]
IC50: 6.9 µM
